Results from ChEMBL document CHEMBL3352178, “Antidepressant- and anxiolytic-like activity of 7-phenylpiperazinylalkyl-1,3-dimethyl-purine-2,6-dione derivatives with diversified 5-HT₁A receptor functional profile” (Bioorg Med Chem, 2015).

How the values were obtained:
[1] = target: 5-hydroxytryptamine receptor 7 (Homo sapiens, UniProt P34969); test: Displacement of [3H]]-5-CT from human cloned 5-HT7R expressed in HEK293 cells; format: cell-based
[2] = target: T1, 5-hydroxytryptamine receptor 1A (Rattus norvegicus, UniProt P19327); test: Displacement of [3H]-8-OH-DPAT from 5-HT1AR in rat hippocampus; format: tissue-based
T1 sequence (P19327 whole entry): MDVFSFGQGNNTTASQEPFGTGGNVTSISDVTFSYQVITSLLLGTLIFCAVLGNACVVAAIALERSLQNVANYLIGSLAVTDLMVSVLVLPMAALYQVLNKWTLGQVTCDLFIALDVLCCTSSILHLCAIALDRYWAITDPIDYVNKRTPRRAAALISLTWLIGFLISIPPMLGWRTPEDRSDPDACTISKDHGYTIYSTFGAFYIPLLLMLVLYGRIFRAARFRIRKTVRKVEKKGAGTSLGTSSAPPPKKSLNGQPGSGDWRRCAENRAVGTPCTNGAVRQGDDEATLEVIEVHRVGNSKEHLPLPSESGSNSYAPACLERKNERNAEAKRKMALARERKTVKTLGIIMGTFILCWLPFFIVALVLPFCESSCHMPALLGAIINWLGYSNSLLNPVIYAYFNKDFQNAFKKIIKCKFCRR

[3] = target: 5-hydroxytryptamine receptor 2A (Rattus norvegicus, UniProt P14842); test: Displacement of [3H]-ketanserin from 5-HT2AR in rat cortex
D(2) dopamine receptor = D(2) dopamine receptor (Rattus norvegicus, UniProt P61169); test: Displacement of [3H]-spiperone from dopamine D2 receptor in rat striatum
[4] = target: 5-hydroxytryptamine receptor 6 (Homo sapiens, UniProt P50406); test: Displacement of [3H]LSD from human cloned 5-HT6R expressed in HEK293 cells; format: cell-based
Chain of 5-hydroxytryptamine receptor 6 (P50406 whole entry): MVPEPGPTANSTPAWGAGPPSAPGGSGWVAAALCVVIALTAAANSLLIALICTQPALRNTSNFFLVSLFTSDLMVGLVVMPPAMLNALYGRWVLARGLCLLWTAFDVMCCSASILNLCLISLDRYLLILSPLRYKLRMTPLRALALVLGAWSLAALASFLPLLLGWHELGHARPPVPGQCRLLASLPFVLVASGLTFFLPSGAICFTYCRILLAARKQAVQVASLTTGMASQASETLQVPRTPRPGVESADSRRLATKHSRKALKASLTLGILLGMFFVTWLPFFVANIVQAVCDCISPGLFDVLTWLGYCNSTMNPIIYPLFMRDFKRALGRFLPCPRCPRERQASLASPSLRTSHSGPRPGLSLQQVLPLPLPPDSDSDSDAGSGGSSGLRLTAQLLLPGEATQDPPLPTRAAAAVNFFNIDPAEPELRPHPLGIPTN

Chain of 5-hydroxytryptamine receptor 2A (P14842 whole entry): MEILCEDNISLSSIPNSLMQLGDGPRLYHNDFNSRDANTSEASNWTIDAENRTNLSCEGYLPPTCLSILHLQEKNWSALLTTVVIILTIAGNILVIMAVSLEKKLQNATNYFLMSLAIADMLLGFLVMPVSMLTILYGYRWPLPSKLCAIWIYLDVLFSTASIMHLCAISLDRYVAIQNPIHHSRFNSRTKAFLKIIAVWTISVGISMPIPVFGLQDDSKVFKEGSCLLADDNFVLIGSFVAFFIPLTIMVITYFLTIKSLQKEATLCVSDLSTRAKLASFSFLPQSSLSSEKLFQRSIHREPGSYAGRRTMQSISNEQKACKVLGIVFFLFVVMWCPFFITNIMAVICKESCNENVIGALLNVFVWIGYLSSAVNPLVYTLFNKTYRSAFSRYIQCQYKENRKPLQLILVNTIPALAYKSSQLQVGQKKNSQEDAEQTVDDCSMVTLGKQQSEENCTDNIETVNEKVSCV
Chain of D(2) dopamine receptor (P61169 whole entry): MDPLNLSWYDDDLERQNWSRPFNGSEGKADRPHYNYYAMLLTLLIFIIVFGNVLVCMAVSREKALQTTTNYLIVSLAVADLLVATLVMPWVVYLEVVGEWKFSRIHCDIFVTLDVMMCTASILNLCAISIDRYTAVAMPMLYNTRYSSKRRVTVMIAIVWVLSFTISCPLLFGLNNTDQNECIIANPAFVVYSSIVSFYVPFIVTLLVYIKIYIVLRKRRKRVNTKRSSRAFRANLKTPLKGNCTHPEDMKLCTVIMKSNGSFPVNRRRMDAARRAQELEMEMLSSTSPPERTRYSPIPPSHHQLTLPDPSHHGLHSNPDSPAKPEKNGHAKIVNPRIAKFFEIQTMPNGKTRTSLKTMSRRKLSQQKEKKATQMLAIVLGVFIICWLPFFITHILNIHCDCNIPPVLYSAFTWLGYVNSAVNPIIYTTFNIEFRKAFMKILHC
Chain of 5-hydroxytryptamine receptor 7 (P34969 whole entry): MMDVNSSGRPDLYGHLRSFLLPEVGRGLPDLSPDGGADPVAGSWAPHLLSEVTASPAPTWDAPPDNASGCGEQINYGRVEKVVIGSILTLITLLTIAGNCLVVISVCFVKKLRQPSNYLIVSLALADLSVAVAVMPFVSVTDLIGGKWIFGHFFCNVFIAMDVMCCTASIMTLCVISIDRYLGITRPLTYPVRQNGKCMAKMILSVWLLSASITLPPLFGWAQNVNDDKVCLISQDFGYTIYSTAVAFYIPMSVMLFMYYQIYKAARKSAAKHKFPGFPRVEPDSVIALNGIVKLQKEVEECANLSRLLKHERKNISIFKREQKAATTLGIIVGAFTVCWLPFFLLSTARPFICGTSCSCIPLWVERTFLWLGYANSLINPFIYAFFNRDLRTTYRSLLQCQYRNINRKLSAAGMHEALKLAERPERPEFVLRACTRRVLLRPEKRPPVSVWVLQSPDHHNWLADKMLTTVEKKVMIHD

Compound	Ki [1]	Ki [2]	Ki [3]	Ki (D(2) dopamine receptor)	Ki [4]
COc1ccccc1N1CCN(CCCn2cnc3c2c(=O)n(C)c(=O)n3C)CC1	2210 nM	119 nM	927 nM	944 nM	12.1 µM
Cn1c(=O)c2c(ncn2CCCN2CCN(c3cccc(Cl)c3)CC2)n(C)c1=O	2800 nM	182 nM	53 nM	3190 nM	20.3 µM
Cn1c(=O)c2c(ncn2CCCN2CCc3ccccc3C2)n(C)c1=O	3620 nM	433 nM	10500 nM	2710 nM	12.3 µM
Cn1c(=O)c2c(ncn2CCCN2CCN(c3ccccc3)CC2)n(C)c1=O	1430 nM	571 nM	92 nM	1090 nM	20.1 µM
Cn1c(=O)c2c(ncn2CCCCN2CCN(c3ccccc3)CC2)n(C)c1=O	1150 nM	23 nM	507 nM	1010 nM	14.2 µM

These reach a lower Ki [1]. Values come first.

Ki [1]	Ki [2]	Ki [3]	Ki (D(2) dopamine receptor)	Ki [4]	Compound
629 nM	239 nM	22000 nM	7820 nM	11.7 µM	Cn1c(=O)c2c(ncn2CCCCN2CCc3ccccc3C2)n(C)c1=O
73 nM	55 nM	162 nM	15 nM	0.068 µM	Cn1c(=O)c2c(ncn2CCCCN2CCN(c3cccc(Cl)c3Cl)CC2)n(C)c1=O
112 nM	22 nM	21 nM	–	0.207 µM	Cn1c(=O)c2c(nc(N3CCOCC3)n2CCCCN2CCN(c3cccc(Cl)c3)CC2)n(C)c1=O
